Patent US8889704B2 (Array BioPharma Inc., priority 2011, dated 2014)
Structures can show the parent of a compound that is named as a salt.

What was measured:
Format in all cases: biochemical
[1] = molecular target: T1, GST-tagged recombinant full-length human Pim-2 (Homo sapiens, UniProt Q9P1W9); assay: PIM-2 Assay (as Example A); details: averaged IC50; 4 μM ATP, 1.0 μM PIM2tide, 1.5 nM Pim-2
T1 construct: GST-tagged recombinant full-length human Pim-2; GST
Method in brief: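 Radiometric filter-binding assay: GST-tagged full-length human Pim-2 (1.5 nM) phosphorylates 1.0 μM PIM2tide with 4 μM [γ-33P]ATP for 60 min at 22 °C in pH 7.4 MOPS buffer, 2% DMSO. 10-point 3-fold dilutions from 10 μM top dose; IC50 from 4-parameter fit of percent of control.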

[2] = molecular target: PIM-1 (Homo sapiens, UniProt P11309); assay: Enzyme PIM-1 Assay ([33P]ATP incorporation into PIM2tide, filter plate); details: averaged IC50; 35 μM ATP, 7.5 μM PIM2tide, 0.25 nM PIM-1, 60 min at 22° C.
PIM-1, sequence (P11309 whole entry, species assumed): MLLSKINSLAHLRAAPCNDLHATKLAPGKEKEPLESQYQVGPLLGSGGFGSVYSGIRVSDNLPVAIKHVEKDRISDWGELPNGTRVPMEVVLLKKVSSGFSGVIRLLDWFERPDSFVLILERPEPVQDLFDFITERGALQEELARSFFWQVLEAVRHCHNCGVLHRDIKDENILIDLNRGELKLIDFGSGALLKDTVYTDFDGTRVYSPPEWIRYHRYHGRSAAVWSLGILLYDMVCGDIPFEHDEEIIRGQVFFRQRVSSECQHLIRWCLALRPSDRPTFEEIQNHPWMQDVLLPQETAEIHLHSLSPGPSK
Method in brief: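 Radiometric assay: 0.25 nM PIM-1 phosphorylates 7.5 μM PIM2tide with 35 μM [γ-33P]ATP in 20 mM MOPS pH 7.4, 10 mM MgCl2, 1 mM DTT, 0.005% Tween-20, 60 min at 22 °C. Product captured on P81 filters, scintillation counted; 10-point 3-fold curve from 10 μM top, 2% DMSO, IC50 by 4-parameter logistic fit of POC.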

[3] = molecular target: recombinant rat PIM-3 (Rattus norvegicus, UniProt O70444); assay: PIM-3 Assay (as Example A); details: averaged IC50; 30 μM ATP, 3.75 μM PIM2tide, 0.5 nM PIM-3
Method in brief: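 Recombinant rat PIM-3 (0.5 nM) with 3.75 μM PIM2tide and 30 μM [γ-33P]ATP in MOPS pH 7.4 buffer, 60 min at 22 °C; labelled peptide captured on phosphocellulose filters and counted by scintillation. 10-point curve (top dose 10 μM, 2% DMSO); IC50 from 4-parameter fit of percent of control.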

T1 sequence (Q9P1W9 whole entry): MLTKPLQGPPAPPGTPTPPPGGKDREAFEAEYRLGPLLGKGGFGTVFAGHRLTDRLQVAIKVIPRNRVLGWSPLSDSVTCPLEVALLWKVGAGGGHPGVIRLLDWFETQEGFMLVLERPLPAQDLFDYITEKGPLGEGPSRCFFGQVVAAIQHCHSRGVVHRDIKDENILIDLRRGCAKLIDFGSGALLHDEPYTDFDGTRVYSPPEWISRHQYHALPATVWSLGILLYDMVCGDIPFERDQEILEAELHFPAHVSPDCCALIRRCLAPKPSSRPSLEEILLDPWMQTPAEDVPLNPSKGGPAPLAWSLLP

Structure (SMILES)	IC50 [1]	IC50 [2]	IC50 [3]
N[C@H]1CCN([C@@H](c2ccc3nnc(-c4ccc5cccc(OCC6CC6)c5n4)n3c2)C(F)(F)F)C1 (single isomer, unassigned) [Example 10, dihydrochloride]	306 nM	1.84 nM	12 nM
Cn1cc(-c2ccc3ccc(-c4nnc5ccc([C@@H](N6CC[C@H](N)C6)C(F)(F)F)cn45)nc3c2F)cn1 [Example 171, (S)-1-((R)-2,2,2-trifluoro-1-(3-(8-fluoro-7-(1-methyl-1H-pyrazol-4-yl)quinolin-2-yl)-[1,2,4]triazolo[4,3-a]pyridin-6-yl)ethyl)pyrrolidin-3-amine tri-hydrochloride]	> 100 nM	0.29 nM	0.5 nM
CC(C)(C)c1cccc2ccc(-c3nnc4ccc([C@@H](N5C[C@@H]6C[C@H]5CN6)C(F)(F)F)cn34)nc12 [Example 62, 2-(6-((R)-1-((1S,4S)-2,5-diazabicyclo[2.2.1]heptan-2-yl)-2,2,2-trifluoroethyl)-[1,2,4]triazolo[4,3-a]pyridin-3-yl)-8-tert-butylquinoline]	2.9 nM	0.71 nM	1.4 nM
CC(C)Oc1cccc2ccc(-c3nnc4ccc([C@@H](N5CC[C@@](C)(N)C5)C(F)(F)F)cn34)nc12 [Example 91, (R)-3-methyl-1-((R)-2,2,2-trifluoro-1-(3-(8-isopropoxyquinolin-2-yl)-[1,2,4]triazolo[4,3-a]pyridin-6-yl)ethyl)pyrrolidin-3-amine dihydrochloride]	> 100 nM	0.25 nM	2.6 nM
COCC1(c2cc3nc(-c4nnc5ccc([C@@H](N6CC[C@H](N)C6)C(F)(F)F)cn45)ccc3cc2F)CC1 [Example 165, (S)-1-((R)-2,2,2-trifluoro-1-(3-(6-fluoro-7-(1-(methoxymethyl)cyclopropyl)quinolin-2-yl)-[1,2,4]triazolo[4,3-a]pyridin-6-yl)ethyl)pyrrolidin-3-amine dihydrochloride]	> 100 nM	3.83 nM	6.6 nM
COCCc1cc2nc(-c3nnc4ccc([C@@H](N5CC[C@H](N)C5)C(F)(F)F)cn34)ccc2cc1F [Example 153, (S)-1-((R)-2,2,2-trifluoro-1-(3-(6-fluoro-7-(2-methoxyethyl)quinolin-2-yl)-[1,2,4]triazolo[4,3-a]pyridin-6-yl)ethyl)pyrrolidin-3-amine dihydrochloride]	> 100 nM	0.19 nM	1.6 nM
FC(F)(F)[C@H](c1ccc2nnc(-c3ccc4ccc(C5CC5)cc4n3)n2c1)N1C[C@@H]2C[C@H]1CN2 [Example 77, 2-(6-((S)-1-((1S,4S)-2,5-diazabicyclo[2.2.1]heptan-2-yl)-2,2,2-trifluoroethyl)-[1,2,4]triazolo[4,3-a]pyridin-3-yl)-7-cyclopropylquinoline dihydrochloride]	10 nM	0.16 nM	0.3 nM
CC(C)(C)NC(=O)c1ccc2ccc(-c3nnc4ccc([C@@H](N5CC[C@H](N)C5)C(F)(F)F)cn34)nc2c1 [Example 46, 2-(6-((R)-1-((S)-3-aminopyrrolidin-1-yl)-2,2,2-trifluoroethyl)-[1,2,4]triazolo[4,3-a]pyridin-3-yl)-N-tert-butylquinoline-7-carboxamide dihydrochloride]	33 nM	0.07 nM	0.3 nM
CC(C)Oc1cccc2ccc(-c3nnc4ccc([C@@H](N5CC[C@](N)(CF)C5)C(F)(F)F)cn34)nc12 (single isomer, unassigned) [Example 155, dihydrochloride]	45 nM	0.34 nM	1.3 nM
CC1(O)CCN([C@H](c2ccc3nnc(-c4ccc5cccc(C(C)(C)C)c5n4)n3c2)C(F)(F)F)C1 (single isomer, unassigned; diastereomer 2) [Example 196, hydrochloride]	> 1000 nM	42.3 nM	> 100 nM
N[C@H]1CCN([C@H](c2ccc3nnc(-c4ccc5cc(F)cc(OCCCO)c5n4)n3c2)C(F)(F)F)C1 [Example 229, 3-(2-(6-((R)-1-((S)-3-aminopyrrolidin-1-yl)-2,2,2-trifluoroethyl)-[1,2,4]triazolo[4,3-a]pyridin-3-yl)-6-fluoroquinolin-8-yloxy)propan-1-ol dihydrochloride]	55 nM	0.13 nM	0.3 nM
CCOc1cc2nc(-c3nnc4ccc([C@H](C)N5CC[C@H](N)C5)cn34)ccc2cc1F [Example 310, (S)-1-((S)-1-(3-(7-ethoxy-6-fluoroquinolin-2-yl)-[1,2,4]triazolo[4,3-a]pyridin-6-yl)ethyl)pyrrolidin-3-amine trihydrochloride]	415 nM	0.46 nM	1.1 nM
CCSc1ccc2ccc(-c3nnc4ccc([C@@H](N5CC[C@H](N)C5)C(F)(F)F)cn34)nc2c1 [Example 266, (S)-1-((R)-1-(3-(7-(ethylthio)quinolin-2-yl)-[1,2,4]triazolo[4,3-a]pyridin-6-yl)-2,2,2-trifluoroethyl)pyrrolidin-3-amine hydrochloride]	690 nM	0.5 nM	1 nM
CCOc1cc2nc(-c3nnc4ccc([C@H](N5CC[C@H](N)C5)C(F)(F)F)cn34)ccc2cc1F [Example 249, (S)-1-((S)-1-(3-(7-ethoxy-6-fluoroquinolin-2-yl)-[1,2,4]triazolo[4,3-a]pyridin-6-yl)-2,2,2-trifluoroethyl)pyrrolidin-3-amine dihydrochloride]	83 nM	0.51 nM	0.8 nM
CC1(NC(=O)c2ccc3ccc(-c4nnc5ccc([C@@H](N6CC[C@H](N)C6)C(F)(F)F)cn45)nc3c2)CC1 [Example 53, 2-(6-((R)-1-((S)-3-aminopyrrolidin-1-yl)-2,2,2-trifluoroethyl)-[1,2,4]triazolo[4,3-a]pyridin-3-yl)-N-(1-methylcyclopropyl)quinoline-7-carboxamide dihydrochloride]	27 nM	0.24 nM	0.3 nM
N[C@H]1CCN([C@H](c2ccc3nnc(-c4ccc5cc(F)cc(O)c5n4)n3c2)C(F)(F)F)C1 [Example 163, 2-(6-((R)-1-((S)-3-aminopyrrolidin-1-yl)-2,2,2-trifluoroethyl)-[1,2,4]triazolo[4,3-a]pyridin-3-yl)-6-fluoroquinolin-8-ol hydrochloride]	> 100 nM	0.3 nM	10 nM
FC(F)(F)[C@@H](c1ccc2nnc(-c3ccc4ccc(Br)cc4n3)n2c1)N1C[C@@H]2C[C@H]1CN2 [Example 68, 2-(6-((R)-1-(1S,4S)-2,5-diazabicyclo[2.2.1]heptan-2-yl)-2,2,2-trifluoroethyl)-[1,2,4]triazolo[4,3-a]pyridin-3-yl)-7-bromo quinoline dihydrochloride]	> 100 nM	4.09 nM	14 nM
CCOc1cc2nc(-c3nnc4ccc([C@@H](N5CCC(N)(CC)C5)C(F)(F)F)cn34)ccc2cc1F (single isomer, unassigned; diastereomer 1) [Example 243, dihydrochloride]	728 nM	0.54 nM	2.1 nM
CSCCOc1ccc2ccc(-c3nnc4ccc([C@@H](N5CC[C@H](N)C5)C(F)(F)F)cn34)nc2c1 [Example 281, (S)-1-((R)-2,2,2-trifluoro-1-(3-(7-(2-(methylthio)ethoxy)quinolin-2-yl)-[1,2,4]triazolo[4,3-a]pyridin-6-yl)ethyl)pyrrolidin-3-amine hydrochloride]	242 nM	0.26 nM	0.7 nM
N[C@H]1CCN([C@H](c2ccc3nnc(-c4ccc5cc(F)c(C6CC6)cc5n4)n3c2)C(F)(F)F)C1 [Example 176, (S)-1-((R)-1-(3-(7-cyclopropyl-6-fluoroquinolin-2-yl)-[1,2,4]triazolo[4,3-a]pyridin-6-yl)-2,2,2-trifluoroethyl)pyrrolidin-3-amine dihydrochloride]	92 nM	0.17 nM	2.7 nM
C[C@H](O)COc1cccc2ccc(-c3nnc4ccc([C@@H](N5CC[C@H](N)C5)C(F)(F)F)cn34)nc12 [Example 187, (S)-1-(2-(6-((R)-1-((S)-3-aminopyrrolidin-1-yl)-2,2,2-trifluoroethyl)-[1,2,4]triazolo[4,3-a]pyridin-3-yl)quinolin-8-yloxy)propan-2-ol dihydrochloride]	> 100 nM	0.37 nM	0.9 nM
Fc1ccc2ccc(-c3nnc4ccc([C@@H](N5C[C@@H]6C[C@H]5CN6)C(F)(F)F)cn34)nc2c1 [Example 63, 2-(6-((R)-1-((1S,4S)-2,5-diazabicyclo[2.2.1]heptan-2-yl)-2,2,2-trifluoroethyl)-[1,2,4]triazolo[4,3-a]pyridin-3-yl)-7-fluoro quinoline dihydrochloride]	> 100 nM	11.7 nM	25 nM
